Values joined by “and” are separate entries in the source; they are usually repeats but may differ in a detail not shown here. Equal values may be shown once. Toxic doses and inconclusive results are not listed. The calls were made as follows: active = survival T/C of 150% or more; inactive = T/C below 125% in these data.
Tested on: BDF1 mice, B16 melanoma ip, median survival T/C
Assay: NCI In Vivo Anticancer Drug Screen. Data for tumor model B16 Melanoma (intraperitoneal) in B6D2F1 (BDF1) mice
Conditions: endpoint: median survival time, higher = longer survival
Procedure: The antitumor activity of compounds was measured in mice bearing transplantable tumors. Survival or tumor size were measured and the results are expressed as the measurement made in the treated group (T) divided by the measurement made in the vehicle treated control group (C). The tumor model used in this assay is B16 Melanoma (intraperitoneal) in B6D2F1 (BDF1) mice

[1] = dose: 25.0 mg/kg/injection, schedule: Q01DX009 (ip), vehicle: saline
[2] = dose: 50.0 mg/kg/injection, schedule: Q01DX009 (ip), vehicle: saline
[3] = dose: 100.0 mg/kg/injection, schedule: Q01DX009 (ip), vehicle: saline
[4] = dose: 200.0 mg/kg/injection, schedule: Q01DX009 (ip), vehicle: saline

Measured: T/C

CN(C)/N=N/c1nc[nH]c1C(N)=O
inactive: dose: 6.25 mg/kg/injection, schedule: Q01DX009 (ip), vehicle: saline 110 % of control | dose: 6.25 mg/kg/injection, schedule: Q01DX009 (ip), vehicle: steriod suspending solution 105 % of control | dose: 12.5 mg/kg/injection, schedule: Q01DX009 (ip), vehicle: carboxymethylcellulose (CMC) 121 % of control | dose: 12.5 mg/kg/injection, schedule: Q01DX009 (ip), vehicle: saline 115 % of control | dose: 12.5 mg/kg/injection, schedule: Q01DX009 (ip), vehicle: steriod suspending solution 107 % of control | dose: 13.0 mg/kg/injection, schedule: Q01DX009 (ip), vehicle: saline with Tween-80 114 % of control | dose: 18.75 mg/kg/injection, schedule: Q01DX009 (ip), vehicle: Klucel (hydroxypropylcellulose) (HPC) 101 % of control | dose: 18.8 mg/kg/injection, schedule: Q01DX009 (ip), vehicle: saline 105 % of control | dose: 18.8 mg/kg/injection, schedule: Q04DX005 (ip), vehicle: saline 94 % of control | dose: 25.0 mg/kg/injection, schedule: Q01DX009 (ip), vehicle: carboxymethylcellulose (CMC) 115 % of control | dose: 25.0 mg/kg/injection, schedule: Q01DX009 (ip), vehicle: distilled water + Tween-80 117 % of control | dose: 25.0 mg/kg/injection, schedule: Q01DX009 (ip), vehicle: saline with Tween-80 107 % of control | [1] 102 % of control and 110 % of control and 114 % of control | dose: 25.0 mg/kg/injection, schedule: Q01DX009 (ip), vehicle: steriod suspending solution 115 % of control | dose: 25.0 mg/kg/injection, schedule: Q01DX017 (ip), vehicle: saline 116 % of control | dose: 25.0 mg/kg/injection, schedule: Q04DX003 (ip), vehicle: saline with Tween-80 104 % of control and 105 % of control and 115 % of control | dose: 27.5 mg/kg/injection, schedule: Q01DX009 (ip), vehicle: saline 100 % of control | dose: 37.0 mg/kg/injection, schedule: Q01DX009 (ip), vehicle: saline with Tween-80 112 % of control | dose: 37.5 mg/kg/injection, schedule: Q04DX003 (ip), vehicle: saline 100 % of control | dose: 37.5 mg/kg/injection, schedule: Q04DX005 (ip), vehicle: saline 97 % of control | dose: 48.0 mg/kg/injection, schedule: Q01DX005 (ip), vehicle: Klucel (hydroxypropylcellulose) (HPC) 99 % of control | dose: 50.0 mg/kg/injection, schedule: Q01DX009 (ip), vehicle: carboxymethylcellulose (CMC) 110 % of control | dose: 50.0 mg/kg/injection, schedule: Q01DX009 (ip), vehicle: saline with Tween-80 124 % of control | [2] 105 % of control and 114 % of control and 121 % of control | dose: 50.0 mg/kg/injection, schedule: Q01DX009 (ip), vehicle: steriod suspending solution 115 % of control | dose: 50.0 mg/kg/injection, schedule: Q01DX017 (ip), vehicle: saline 114 % of control | dose: 50.0 mg/kg/injection, schedule: Q04DX003 (ip), vehicle: saline with Tween-80 115 % of control | dose: 72.0 mg/kg/injection, schedule: Q01DX005 (ip), vehicle: Klucel (hydroxypropylcellulose) (HPC) 101 % of control | dose: 75.0 mg/kg/injection, schedule: Q01DX001 (ip), vehicle: saline 114 % of control | dose: 75.0 mg/kg/injection, schedule: Q04DX003 (ip), vehicle: saline 107 % of control | dose: 75.0 mg/kg/injection, schedule: Q04DX005 (ip), vehicle: saline 107 % of control | dose: 100.0 mg/kg/injection, schedule: Q01DX009 (ip), vehicle: carboxymethylcellulose (CMC) 105 % of control | dose: 100.0 mg/kg/injection, schedule: Q01DX009 (ip), vehicle: distilled water + Tween-80 124 % of control | dose: 100.0 mg/kg/injection, schedule: Q01DX009 (ip), vehicle: saline with Tween-80 123 % of control | [3] 110 % of control (2×) and 119 % of control | dose: 100.0 mg/kg/injection, schedule: Q01DX009 (ip), vehicle: steriod suspending solution 115 % of control | dose: 100.0 mg/kg/injection, schedule: Q01DX017 (ip), vehicle: saline 123 % of control | dose: 108.0 mg/kg/injection, schedule: Q01DX005 (ip), vehicle: Klucel (hydroxypropylcellulose) (HPC) 98 % of control | dose: 130.0 mg/kg/injection, schedule: Q01DX009 (ip), vehicle: DMSO 105 % of control | dose: 148.0 mg/kg/injection, schedule: Q04DX003 (ip), vehicle: saline with Tween-80 110 % of control | dose: 150.0 mg/kg/injection, schedule: Q01DX001 (ip), vehicle: saline 112 % of control | dose: 150.0 mg/kg/injection, schedule: Q04DX003 (ip), vehicle: saline 112 % of control | dose: 160.0 mg/kg/injection, schedule: Q01DX005 (ip), vehicle: Klucel (hydroxypropylcellulose) (HPC) 101 % of control | dose: 166.7 mg/kg/injection, schedule: Q01DX009 (ip), vehicle: saline with Tween-80 77 % of control | dose: 200.0 mg/kg/injection, schedule: Q01DX009 (ip), vehicle: distilled water + Tween-80 121 % of control | [4] 117 % of control and 118 % of control | dose: 200.0 mg/kg/injection, schedule: Q04DX003 (ip), vehicle: saline with Tween-80 109 % of control | dose: 216.0 mg/kg/injection, schedule: Q01DX009 (ip), vehicle: DMSO 109 % of control | dose: 222.0 mg/kg/injection, schedule: Q04DX003 (ip), vehicle: saline with Tween-80 115 % of control | dose: 240.0 mg/kg/injection, schedule: Q01DX005 (ip), vehicle: Klucel (hydroxypropylcellulose) (HPC) 99 % of control | dose: 277.8 mg/kg/injection, schedule: Q01DX009 (ip), vehicle: saline with Tween-80 53 % of control | dose: 300.0 mg/kg/injection, schedule: Q01DX001 (ip), vehicle: saline 102 % of control | dose: 300.0 mg/kg/injection, schedule: Q04DX003 (ip), vehicle: saline 114 % of control | dose: 300.0 mg/kg/injection, schedule: Q04DX005 (ip), vehicle: saline 115 % of control | dose: 333.0 mg/kg/injection, schedule: Q04DX003 (ip), vehicle: saline with Tween-80 124 % of control | dose: 500.0 mg/kg/injection, schedule: Q04DX003 (ip), vehicle: saline with Tween-80 114 % of control | dose: 600.0 mg/kg/injection, schedule: Q01DX001 (ip), vehicle: saline 107 % of control | dose: 600.0 mg/kg/injection, schedule: Q04DX003 (ip), vehicle: saline 95 % of control | dose: 750.0 mg/kg/injection, schedule: Q04DX003 (ip), vehicle: saline with Tween-80 124 % of control | dose: 800.0 mg/kg/injection, schedule: Q04DX003 (ip), vehicle: saline with Tween-80 45 % of control | dose: 1200.0 mg/kg/injection, schedule: Q01DX001 (ip), vehicle: saline 117 % of control

Nc1nc2n[nH]nc2c(=O)[nH]1
inactive: [1] 108 % of control | [2] 108 % of control | [3] 113 % of control | [4] 111 % of control

NC(=O)c1cn(C2OC(CO)C(O)C2O)c2ncnc(N)c12 (stereo unspecified)
inactive: dose: 0.09 mg/kg/injection, schedule: Q01DX009 (ip), vehicle: saline 100 % of control | dose: 0.12 mg/kg/injection, schedule: Q01DX009 (ip), vehicle: water 93 % of control | dose: 0.13 mg/kg/injection, schedule: Q01DX009 (ip), vehicle: saline 97 % of control | dose: 0.19 mg/kg/injection, schedule: Q01DX009 (ip), vehicle: saline 105 % of control | dose: 0.25 mg/kg/injection, schedule: Q01DX009 (ip), vehicle: saline 102 % of control | dose: 0.25 mg/kg/injection, schedule: Q01DX009 (ip), vehicle: water 106 % of control | dose: 0.38 mg/kg/injection, schedule: Q01DX009 (ip), vehicle: saline 105 % of control | dose: 0.5 mg/kg/injection, schedule: Q01DX009 (ip), vehicle: saline 102 % of control | dose: 0.75 mg/kg/injection, schedule: Q01DX009 (ip), vehicle: saline 114 % of control

O=C(/C=C/C(=O)Oc1c(Cl)cc(Cl)cc1Cl)Oc1c(Cl)cc(Cl)cc1Cl
inactive: dose: 100.0 mg/kg/injection, schedule: Q04DX003 (ip), vehicle: Klucel (hydroxypropylcellulose) (HPC) 95 % of control | dose: 200.0 mg/kg/injection, schedule: Q04DX003 (ip), vehicle: Klucel (hydroxypropylcellulose) (HPC) 92 % of control | dose: 400.0 mg/kg/injection, schedule: Q04DX003 (ip), vehicle: Klucel (hydroxypropylcellulose) (HPC) 95 % of control

OCCN1CCN(CC/C=C2\c3ccccc3COc3ccc(Cl)cc32)CC1
inactive: dose: 2.0 mg/kg/injection, schedule: Q01DX009 (ip), vehicle: saline 105 % of control | dose: 4.0 mg/kg/injection, schedule: Q01DX009 (ip), vehicle: saline 113 % of control

CCCCCC#CC(=O)O
inactive: dose: 75.0 mg/kg/injection, schedule: Q01DX009 (ip), vehicle: Klucel (hydroxypropylcellulose) (HPC) 95 % of control | dose: 150.0 mg/kg/injection, schedule: Q01DX009 (ip), vehicle: Klucel (hydroxypropylcellulose) (HPC) 86 % of control

— PubChem BioAssay AID192 (DTP/NCI, 2004)
